{
  "source": "paper PMC4710668",
  "about": "“Bioactivation of food genotoxicants 5-hydroxymethylfurfural and furfuryl alcohol by sulfotransferases from human, mouse and rat: a comparative study” (Archives of Toxicology, 2014)",
  "test_in_all_cases": "HMF sulfoconjugation assay",
  "assay_type_in_all_cases": "biochemical",
  "key": {"[1]": {"molecular_target": "T1, mSult1b1 (Mus musculus, UniProt Q9QWG7)", "T1 construct": "made in house; host or cells: Salmonella typhimurium TA1538 (cytosolic fraction, enzyme not purified)", "T1 sequence (Q9QWG7 whole entry)": "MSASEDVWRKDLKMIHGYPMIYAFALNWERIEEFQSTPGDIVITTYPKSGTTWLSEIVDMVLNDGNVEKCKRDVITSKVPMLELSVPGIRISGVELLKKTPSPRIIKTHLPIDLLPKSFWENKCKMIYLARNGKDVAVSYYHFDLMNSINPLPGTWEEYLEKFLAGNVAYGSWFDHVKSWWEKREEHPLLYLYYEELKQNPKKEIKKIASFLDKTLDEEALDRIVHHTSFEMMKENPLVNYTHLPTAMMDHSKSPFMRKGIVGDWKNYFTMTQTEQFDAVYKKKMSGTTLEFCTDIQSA", "how_it_was_run": "(§1)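 Bacterial cytosolic preparations each holding a single recombinant SULT were mixed with PAPS (50 µM) and a range of HMF concentrations, then incubated 30 min at 37 °C. 2-Propanol quenched the reaction, and sulfate ester in the supernatant was measured by tandem mass spectrometry.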"}, "[2]": {"molecular_target": "T2, hSULT1A2 (Homo sapiens, UniProt P50226)", "T2 construct": "made in house; host or cells: Salmonella typhimurium TA1538 (cytosolic fraction, not purified)", "T2 sequence (P50226 whole entry)": "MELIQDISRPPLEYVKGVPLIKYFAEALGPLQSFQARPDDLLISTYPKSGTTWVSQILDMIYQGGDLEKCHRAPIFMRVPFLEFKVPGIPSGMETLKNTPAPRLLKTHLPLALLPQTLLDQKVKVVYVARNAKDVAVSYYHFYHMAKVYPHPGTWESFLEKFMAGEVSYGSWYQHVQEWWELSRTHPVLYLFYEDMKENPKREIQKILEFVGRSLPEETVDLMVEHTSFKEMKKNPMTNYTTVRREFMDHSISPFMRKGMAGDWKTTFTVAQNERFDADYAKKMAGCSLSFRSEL", "how_it_was_run": "as §1"}, "[3]": {"molecular_target": "T3, hSULT1C2 (Homo sapiens, UniProt O75897)", "T3 construct": "made in house; host or cells: Salmonella typhimurium TA1538 (cytosolic fraction, not purified)", "T3 sequence (O75897 whole entry)": "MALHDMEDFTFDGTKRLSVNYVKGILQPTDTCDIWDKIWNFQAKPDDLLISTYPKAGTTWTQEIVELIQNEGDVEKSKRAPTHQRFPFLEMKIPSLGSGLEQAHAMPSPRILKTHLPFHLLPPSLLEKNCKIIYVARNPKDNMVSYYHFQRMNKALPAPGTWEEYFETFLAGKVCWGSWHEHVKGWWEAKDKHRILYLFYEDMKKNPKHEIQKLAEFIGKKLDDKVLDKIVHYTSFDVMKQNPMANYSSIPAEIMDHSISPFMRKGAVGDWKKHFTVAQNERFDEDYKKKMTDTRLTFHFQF", "how_it_was_run": "as §1"}, "[4]": {"molecular_target": "T4, hSULT2B1a (Homo sapiens, UniProt O00204)", "T4 construct": "made in house; host or cells: Salmonella typhimurium TA1538 (cytosolic fraction, not purified)", "T4 sequence (O00204 1-350 isoform O00204-2)": "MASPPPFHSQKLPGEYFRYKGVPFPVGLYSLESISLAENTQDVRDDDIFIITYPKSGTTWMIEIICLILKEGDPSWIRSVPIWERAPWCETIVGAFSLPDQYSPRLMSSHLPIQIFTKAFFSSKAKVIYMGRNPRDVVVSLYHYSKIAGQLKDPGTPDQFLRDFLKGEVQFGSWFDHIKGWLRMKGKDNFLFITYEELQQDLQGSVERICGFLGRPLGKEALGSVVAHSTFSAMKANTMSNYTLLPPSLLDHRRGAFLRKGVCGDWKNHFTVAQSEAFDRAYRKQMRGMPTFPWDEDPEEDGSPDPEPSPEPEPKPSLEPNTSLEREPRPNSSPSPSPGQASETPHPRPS", "how_it_was_run": "as §1"}, "[5]": {"molecular_target": "T5, mSult2a2 (Mus musculus, UniProt P50236)", "T5 construct": "made in house; host or cells: Salmonella typhimurium TA1538 (cytosolic fraction, enzyme not purified)", "T5 sequence (P50236 1-285)": "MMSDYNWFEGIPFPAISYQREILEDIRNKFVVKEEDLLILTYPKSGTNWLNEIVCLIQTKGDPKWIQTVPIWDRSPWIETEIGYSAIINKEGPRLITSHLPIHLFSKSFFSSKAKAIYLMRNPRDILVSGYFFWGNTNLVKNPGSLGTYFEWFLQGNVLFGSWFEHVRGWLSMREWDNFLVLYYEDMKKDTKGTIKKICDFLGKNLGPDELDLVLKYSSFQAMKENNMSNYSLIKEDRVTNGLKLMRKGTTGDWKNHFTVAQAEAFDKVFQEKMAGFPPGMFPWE", "how_it_was_run": "as §1"}, "[6]": {"molecular_target": "T6, mSult1d1 (Mus musculus, UniProt Q3UZZ6)", "T6 construct": "made in house; host or cells: Salmonella typhimurium TA1538 (cytosolic fraction, enzyme not purified)", "T6 sequence (Q3UZZ6 whole entry)": "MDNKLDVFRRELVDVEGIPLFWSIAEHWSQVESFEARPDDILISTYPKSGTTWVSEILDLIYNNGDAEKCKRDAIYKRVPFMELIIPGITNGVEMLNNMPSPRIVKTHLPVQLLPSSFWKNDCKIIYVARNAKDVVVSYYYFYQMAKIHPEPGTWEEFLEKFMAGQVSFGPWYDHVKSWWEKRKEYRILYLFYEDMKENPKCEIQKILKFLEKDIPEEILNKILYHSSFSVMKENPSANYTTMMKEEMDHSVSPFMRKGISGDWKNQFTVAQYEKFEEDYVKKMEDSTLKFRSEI", "how_it_was_run": "as §1"}, "[7]": {"conditions": "HMF sulfoconjugation, Michaelis-Menten fit"}},
  "data": [
    {"smiles": "O=Cc1ccc(CO)o1", "note": "[HMF, 5-Hydroxymethylfurfural]", "values": [
      {"measurement": "Rate of sulfoconjugation", "setting": "[1]; 0.1 mM HMF", "value": "0.9 ± 0.1", "unit": "pmol/mg/min"},
      {"measurement": "Rate of sulfoconjugation", "setting": "[1]; 1 mM HMF", "value": "8.2 ± 0.1", "unit": "pmol/mg/min"},
      {"measurement": "Rate of sulfoconjugation", "setting": "[1]; 10 mM HMF", "value": "66.2 ± 6.8", "unit": "pmol/mg/min"},
      {"measurement": "Rate of sulfoconjugation", "setting": "[1]; 100 mM HMF", "value": "64.4 ± 5.0", "unit": "pmol/mg/min"},
      {"measurement": "K M", "setting": "[1]; [7]", "value": "9.5 ± 1.1", "unit": "mM"},
      {"measurement": "Rate of sulfoconjugation", "setting": "[2]; 0.1 mM HMF", "value": "<0.5", "unit": "pmol/mg/min"},
      {"measurement": "Rate of sulfoconjugation", "setting": "[2]; 1 mM HMF", "value": "15.2 ± 4.5", "unit": "pmol/mg/min"},
      {"measurement": "Rate of sulfoconjugation", "setting": "[2]; 10 mM HMF", "value": "130 ± 53", "unit": "pmol/mg/min"},
      {"measurement": "Rate of sulfoconjugation", "setting": "[2]; 100 mM HMF", "value": "628 ± 233", "unit": "pmol/mg/min"},
      {"measurement": "K M", "setting": "[2]; [7]", "value": "56.5 ± 5.4", "unit": "mM"},
      {"measurement": "Rate of sulfoconjugation", "setting": "[3]; 0.1 mM HMF", "value": "1.1 ± 0.3", "unit": "pmol/mg/min"},
      {"measurement": "Rate of sulfoconjugation", "setting": "[3]; 1 mM HMF", "value": "14.0 ± 1.8", "unit": "pmol/mg/min"},
      {"measurement": "Rate of sulfoconjugation", "setting": "[3]; 10 mM HMF", "value": "115 ± 14", "unit": "pmol/mg/min"},
      {"measurement": "Rate of sulfoconjugation", "setting": "[3]; 100 mM HMF", "value": "285 ± 71", "unit": "pmol/mg/min"},
      {"measurement": "K M", "setting": "[3]; [7]", "value": "18.8 ± 5.4", "unit": "mM"},
      {"measurement": "Rate of sulfoconjugation", "setting": "[4]; 0.1 mM HMF", "value": "<0.5", "unit": "pmol/mg/min"},
      {"measurement": "Rate of sulfoconjugation", "setting": "[4]; 1 mM HMF", "value": "<0.5", "unit": "pmol/mg/min"},
      {"measurement": "Rate of sulfoconjugation", "setting": "[4]; 10 mM HMF", "value": "<0.5", "unit": "pmol/mg/min"},
      {"measurement": "Rate of sulfoconjugation", "setting": "[4]; 100 mM HMF", "value": "<0.5", "unit": "pmol/mg/min"},
      {"measurement": "Rate of sulfoconjugation", "setting": "[5]; 0.1 mM HMF", "value": "<0.5", "unit": "pmol/mg/min"},
      {"measurement": "Rate of sulfoconjugation", "setting": "[5]; 1 mM HMF", "value": "4.4 ± 0.8", "unit": "pmol/mg/min"},
      {"measurement": "Rate of sulfoconjugation", "setting": "[5]; 10 mM HMF", "value": "32.4 ± 3.2", "unit": "pmol/mg/min"},
      {"measurement": "Rate of sulfoconjugation", "setting": "[5]; 100 mM HMF", "value": "77.5 ± 11.7", "unit": "pmol/mg/min"},
      {"measurement": "Rate of sulfoconjugation", "setting": "[6]; 0.1 mM HMF", "value": "124 ± 33", "unit": "pmol/mg/min"},
      {"measurement": "Rate of sulfoconjugation", "setting": "[6]; 1 mM HMF", "value": "1,160 ± 260 pmol/mg/min"},
      {"measurement": "Rate of sulfoconjugation", "setting": "[6]; 10 mM HMF", "value": "6,750 ± 1,190 pmol/mg/min"},
      {"measurement": "Rate of sulfoconjugation", "setting": "[6]; 100 mM HMF", "value": "22,400 ± 2,400 pmol/mg/min"},
      {"measurement": "K M", "setting": "[6]; [7]", "value": "31.9 ± 5.7", "unit": "mM"}
    ]}
  ]
}
